Test results: US20230021669A1, “TRICYCLIC COMPOUND, AND PREPARATION METHOD THEREFOR AND MEDICAL USE THEREOF” (The National Institutes of Pharmaceutical R&D Co., Ltd., priority 2019, published 2023)

What was measured:
[1] = Determination of aldehyde capture rate (nonenal as model aldehyde, HPLC quantification); conditions: for Capture rate (slope of the capture curve per unit time): higher absolute value of the slope = higher capture rate; for Aldehyde consumption (100%): nonenal 0.025 mM, compound 0.05 mM, room temperature
Experimental: In the aldehyde capture test disclosed in the present invention, the stable lipid metabolite, nonenal, was used as the model aldehyde to react with the compound of the Example. The specific protocol was as follows.
0.05 mM of the compounds of the Examples of the present invention were precisely weighed respectively and dissolved in 1.2 mL of a mixed solution (v/v=1:1) of triolein (Aladdin, G105172-5g) and linoleic acid (Aladdin, L100442-25g), respectively. 2.5 mL of PBS (Solarbio) solution containing 20% Captisol® (Aladdin, C125030-25g) was added, and the solution was stirred at room temperature overnight. After the example compound was completely dissolved, 0.025 mM nonenal (Sigma, 255653-5G) was added, and the solution was stirred vigorously at room temperature. 200 μL of the sample was added to 800 μL of acetonitrile (Fisher, A995) at 0, 45, 90, 180, 225 and 465 minutes, respectively. The solution was mixed vigorously by vortex for 2 minutes, and centrifuged at a low speed of 1000 r/min for 3 minutes. The supernatant was transferred to an injection vial. The nonenal in the reaction mixture was analyzed quantitatively by high performance liquid chromatography. The adduct resulted from the example compound of the present invention and nonenal was analyzed qualitatively by high performance liquid chromatography-mass spectrometry.
In the developed detection method, the retention time of the model aldehyde nonenal was 2.42 minutes.

[2] = test system: noninfectious uveitis animal model (lewis rats); experiment: Therapeutic effect in lipopolysaccharide-induced noninfectious uveitis animal model; format: in vivo, rat
Experimental: Female lewis rats were used as the research subjects. Lewis rats (Vital River) were randomly divided into groups (4 animals per group, a total of 8 eyes). The groups are as follows: normal control group, model control group, and example administration group. The inflammation model was established in these groups except for the normal control group.
(2) Formulation of drug solution: 10 mg of the compound of Example 4 of the present invention was weighed and dissolved in 1 mL of the vehicle stock solution, and the resulting solution was made up to 2 mL with water for injection. The content of each substance is as follows: Na2HPO4.12H2O 0.83%, NaH2PO4.2H2O 0.017%, ρ-cyclodextrin 9.5%, PEG-400 5.0%, active compound 0.5%.
The animal model was a noninfectious uveitis animal model established by intraperitoneal injection of lipopolysaccharide (derived from Escherichia coli, 055:B5, Sigma, L2880-100MG, injection dose: 2 mg/kg). At the same time of modeling, drug administration was carried out according to the above grouping situation. The normal control group was administered with normal saline, the model control group was administered with blank vehicle, and the example administration group was administered with the eye drops formulated above. The drug was administered by eye instillation to both eyes of each animal, and the eye instillation dose was 20 μL/eye. After the completion of eye instillation, the eyelids were closed for 20 seconds to prevent the loss of the drug. The administration was repeated at 3, 6 and 23 hours after modeling. […] The ocular inflammation of the animals in each group was examined with a slit lamp microscope (Jiangxi Jiangfeng, LYL-S), and evaluated according to the McDonald-Shadduck scoring system (GB/T 28538-2012).
The animals were sacrificed, and the bilateral eyeballs were enucleated. […] Quantitative analysis of total protein in aqueous humor was performed on the supernatant by a BCA protein quantification kit (Beyotime, P0010).

[3] = test system: C48/80-induced allergic conjunctivitis (Wistar rats); experiment: Therapeutic effect in C48/80-induced allergic conjunctivitis animal model; format: in vivo, rat; conditions: female Wistar rats, C48/80 on cornea; 10 μL per eye 10 minutes after stimulation; examined 20 minutes after administration
Description: C48/80 is a polymer formed by the condensation of N-methyl-p-methoxyphenethylamine with formaldehyde, which acts directly on G protein and induces mast cell degranulation. After degranulation, the mast cell releases active substances such as histamine and kinin, which can cause acute type I allergic reactions such as telangiectasia and enhanced permeability. It can cause allergic conjunctivitis if applied topically to the ocular surface.
Female Wistar rats were used as the research subjects. Wistar rats (Vital River) were randomly divided into groups (5 animals per group, a total of 10 eyes). The groups are as follows: normal control group, model control group, positive drug group, and example administration group. The inflammation model was established in these groups except for the normal control group. Emedastine Difumarate Eye Drops (Emadine®, Alcon, H20181192) was used as the positive drug. Model establishment, administration and evaluation processes are as follows. […]
After 10 minutes of stimulation, different drug treatments were carried out according to the group settings. […] The clinical score was evaluated individually on the eyes of each animal according to the McDonald-Shadduck scoring system (GB/T 28538-2012).

SMILES | Capture rate (slope of the capture curve per unit time) ([1]; 225 minutes) | Aldehyde consumption (100%) ([1]; 225 minutes) | Capture rate (slope of the capture curve per unit time) ([1]; 465 minutes) | Aldehyde consumption (100%) ([1]; 465 minutes) | Protein concentration in aqueous humor ([2]; female lewis rats, LPS 2 mg/kg i.p., 0.5% eye drops 20 μL/eye at 0, 3, 6, 23 h, 24 hours after modeling, BCA, mean ± standard deviation) | Ocular score (McDonald-Shadduck scoring system) ([2]; female lewis rats, LPS 2 mg/kg i.p., 0.5% eye drops 20 μL/eye at 0, 3, 6, 23 h, 24 hours after modeling, mean ± standard deviation) | Therapeutic effect in the ocular inflammation animal model (score and aqueous humor protein, in words) ([2]; lewis rats, LPS-induced uveitis, eye drops) | Therapeutic effect on allergic conjunctivitis (McDonald-Shadduck clinical score, FIG. 2) [3]
CC(C)(O)c1nc2cc3c(cc2cc1N)OCO3 [Example 1, 2-(7-amino-[1,3]dioxolo[4,5-g]quinolin-6-yl)propan-2-ol] | −0.05 | 10.73% | −0.04 | 18.43% |  |  |  | 
Cc1nc2cc3nc(C(C)(C)O)c(N)cc3cc2o1 [Example 2, 2-(7-amino-2-methyloxazolo[5,4-g]quinolin-6-yl)propan-2-ol] | −0.06 | 11.99% | −0.03 | 12.11% |  |  |  | 
CC(C)(O)c1nc2cc3nc(N4CCOCC4)oc3cc2cc1N [Example 3, 2-(7-amino-2-morpholinooxazolo[5,4-g]quinolin-6-yl)propan-2-ol] | −0.17 | 35.38% | −0.10 | 43.67% |  |  |  | 
CC(C)(O)c1cc2cc3c(cc2cc1N)OCO3 [Example 4, 2-(7-aminonaphtho[2,3-d][1,3]dioxol-6-yl)propan-2-ol] | −0.25 | 52.65% | −0.14 | 66.62% | 840.6 ± 449.7 µg/mL | 8.4 ± 2.8 | showing a therapeutic effect | good therapeutic effect
Cn1cnc2cc3cc(N)c(C(C)(C)O)nc3cc21 [Example 5, 2-(7-amino-3-methyl-3H-imidazo[4,5-g]quinolin-6-yl)propan-2-ol] | −0.08 | 20.02% | −0.08 | 36.01% |  |  |  | 
CC(C)(O)c1cc2cc3c(cc2cc1N)OCCO3 [Example 6, 2-(8-amino-2,3-dihydronaphtho[2,3-b][1,4]dioxin-7-yl)propan-2-ol] | −0.07 | 16.48% | −0.05 | 22.01% |  |  |  | 
CC(C)(O)c1nc2cc3oc(N4CCOCC4)nc3cc2cc1N [Example 7, 2-(7-amino-2-morpholinooxazolo[4,5-g]quinolin-6-yl)propan-2-ol] | −0.03 | 7.12% | −0.01 | 8.34% |  |  |  | 
CC(C)(O)c1cc2cc3c(cc2cc1N)OCCOCCOCCO3 [Example 8, 2-(14-amino-2,3,5,6,8,9-hexahydronaphtho[2,3-b][1,4,7,10]tetraoxacyclododecin-13-yl) propan-2-ol] | −0.07 | 19.78% | −0.04 | 19.82% |  |  |  | 
Nc1cc2cc3c(cc2cc1C1(O)CC1)OCO3 [Example 9, 1-(7-aminonaphtho[2,3-d][1,3]dioxol-6-yl)cyclopropan-1-ol] | −0.06 | 15.43% | −0.03 | 16.60% |  |  |  | 
